Structures are written as SMILES.

The source of these data is patent US20160090351A1, “INHIBITORS OF DEUBIQUITINATING PROTEASES” (BRANDEIS UNIVERSITY, priority 2013, published 2016).

One experiment deals with Bcr-Abl kinase. Put plainly: Bcr-Abl levels in K562 cells by immunoblotting. As to conditions: compound numbered as in FIG. 3. In kind it is cell-based, human. On the procedure:
K562 cells are from a myelogenous leukemia line that expresses Bcr-Abl kinase. A. K562 cells were treated with TU50 for 24 hours after which time the cells were treated with annexin V-FITC and propidium iodide. Cells were then analyzed by flow cytometry. Cells showing only annexin V-FITC were considered apoptotic whereas cells showing both annexin V-FITC and propidium iodide were considered necrotic. N=2. All points show a significant difference to the vehicle (DMSO) with p<0.05. […] All points show a significant difference to vehicle (DMSO) with p<0.02. C. Same as A, but the incubation period was 8 hours. N>2. All points show a significant difference to DMSO with p<0.02. D, K562 cells were treated with TU50 for 4 hours. Samples were analyzed by SDS-PAGE and immunoblotting with anti-Bcr-Abl antibody. E. Quantitation of blot in D. The signal for tubulin was used to normalize the Bcr-Abl signal. N=3.
(§1) FIG. 34 depicts data showing that diphenylcarbonates cause the accumulation of HMW-Ub and reduce the levels of Bcr-Abl in K562 cells. A. K562 cells were treated with diphenyl carbonates (50 μM) for 2 h and then assayed for the accumulation of K48-linked Ub. B. As in A, but Bcr-Abl was measured by immunoblotting with anti-Abl antibodies. C. K562 cells were treated with C17 (50 μM) in the presence and absence of bortezomib (6 μM) for 4 hours and Bcr-Abl was measured by immunblotting with anti-Abl antibodies. D. Quantitation of blot in C. Significance: DMSO relative to C17 and bortezomib p=0.002; DMSO relative to C17, p=0.03. E. K562 cells were treated with C15 for 4 hours then analyzed for SMAD4 monoubiquitination by western blot. F. Quantitation of blots in A. (N=3). See also FIG. 40.
FIG. 40 depicts data showing that diphenyl carbonates induce the degradation of Bcr-Abl kinase. A. K562 cells were treated with C17 for 24 h (1 dose) then analyzed for Bcr-Abl expression by western blot with anti-Abl antibody. B. Quantitation of blots in A normalized to actin. C. K562 cells were treated with C17 for 24 h then the amount of cells in G1 and apoptosis were recorded (N=3). D. K562 were treated with C15 for 4 h then analyzed for Bcr-Abl expression using western blot. E. Quantitation of Bcr-Abl from D normalized to tubulin (N=4). F. Same K562 lysates were separately analyzed for K63-linked ubiquitin. G. Quantitation of blots in F (N=4). Differences between all bars is significant p<0.01). H. K562 cells were treated with C15 for 24 h after which time cells were fixed in ethanol, treated with propodium iodide/RNAse then analyzed by FACS. Viability was calculated using forward and side scatter. I. Same experiment as H but red fluorescence was measured to determine DNA content
(§2) Transfected cells were harvested 1.5 days post transfection. […] Typically clarified lysate was analyzed.

In experiment [1] the test system is caspases or the proteasome. Put plainly: effect on caspases or proteasome (PARP cleavage), Example 5. In kind it is cell-based. As to conditions: 100 μM. The procedure:
(§3) Cells treated with 4 (100 μM; as defined in FIG. 3) show PARP cleavage that indicates caspases are active. The fluorescence of G76V ubiquitin-GFP fusion protein increases in the presence of inhibitor 4 (as defined in FIG. 3), as expected if degradation […] due to inhibition of DUBs. In contrast, GFP fluorescence […] when the proteasome is inhibited by bortezomib.

Experiment [2] deals with G76V ubiquitin-GFP fusion protein. Put plainly: G76V ubiquitin-GFP fusion protein fluorescence, Example 5. The format is cell-based. As to conditions: Example 5, FIG. 9 bottom panel. On the procedure: as §3
The subject of another experiment is MCF7 cells. Put plainly: accumulation of K48- and K63-linked ubiquitin in MCF7 cells. As to conditions: 100 μM. In kind it is cell-based, human. The procedure: FIG. 41 depicts data showing that compound C17 and C15 increase P53 expression and upregulate K48-linked Ub in MCF7 cells. A. MCF7 cells were treated with C17 (50 μM) for 48 h, dosed every 24 h and samples were analyzed for K48-linked ubiquitin. Note that samples were not sonicated, so only soluble HMW-Ub is recovered. B. A similar experiment to A but samples were analyzed for p53. C. Quantitation of blots in B. Each point has a P<0.001 for an increase relative to the DMSO vehicle (N=2). D. MCF7 cells were treated with C15 (100 μM) dosing every 2 h. The accumulation of K48-linked ubiquitin was assayed by SDS-PAGE and by western blot. E. MCF7 cells were treated as in D but the accumulation of K63-linked ubiquitin was assayed. F. Cos-1 cells were treated with C15 for 2 hours then analyzed for K48-linked ubiquitin by western blot. G. Similar experiment to F, but K63-linked ubiquitin was assayed. H. Quantitation of blots in G (N=3).
Similar results were obtained in Cos-1, CHO and HEK293T.
as §2

Another experiment has as its system SMAD4. Put plainly: SMAD4 monoubiquitination in K562 cells by western blot. The format is cell-based, human. The procedure: as §1, §2
The test system of experiment [3] is USP9x, USP19, USP7/8, USP28/15. Put plainly: HA-Ub-VS activity profiling in cell lysates, USPs. As to conditions: HEK293T or Cos-1 lysate, compounds numbered as in FIG. 3. The format is biochemical, human. The procedure:
(§4) HA-ubiquitin vinylsulfone (HA-Ub-VS) irreversibly labels DUBs by modifying the catalytic cysteine residue Inhibition of the DUB prevents HA-Ub-VS labeling and the band is. […] The interaction with UCHL1/3 is reversible.
(§5) Lysate labeling assay on untransfected cells (1.5 mg/mL) was run with the stated concentration of inhibitor (or 1% DMSO control) for between 19-60 mins. After this time HA-Ub-VS (1.5-0.7 μM) was added and incubated for 19 mins. After this time reaction mixture (9 μL) was removed and quenched in 2× (final concentration) reducing loading buffer. For recovery experiments, a lysate of 6 mg/mL was treated with saturating compound C14 (250 μM) and incubated for 40 mins. Afterward, the lysate was diluted to 0.6 mg/mL (final concentration of inhibitor 25 μM) in lysis buffer (final volume 100 μL), then HA-Ub-VS was added. Aliquots (15 μL) were removed at the stated time (5-119 mins) and immediately quenched in 2× (final concentration) reducing loading buffer. For all HA-Ub-VS experiments samples in loading buffer were heated only to 37° C. prior to loading on a gel. This assay is highly susceptible to concentration of lysate and HA-Ub-VS. Cell experiments were carried out as above with some modifications. For Cos-1 and MCF-7 cells, after trypsinization, media with compound was added to give a final concentration of compound equal to that used in the assay. Cell pellets were lysed on an ice/salt bath with a temperature of −5° C. and lysate was centrifuged for only 5 mins.
(§6) HA-Ub-VS is an irreversible inhibitor of DUBs that is widely used in activity profiling. If the DUB inhibitors react to form a thiocarbonylated enzyme as proposed (FIG. 29B), then HA-Ub-VS labeling will be blocked. Treatment of HEK 293T lysates with HA-Ub-VS produced the characteristic pattern of protein bands at 250, 150-100, 45, 38 and 36 kDa, generally ascribed to USP9x (292 kDa), USP19 (146 kDa), USP7/8 (128 and 127 kDa, respectively), USP28/15 (122 and 112 kDa, respectively), UCH-L5 (38 kDa), UCH-L3 (26 kDa) and UCH-L1 (25 kDa) as depicted in FIG. 31.
(§7) The effect of diphenylcarbonates on HA-Ub-VS labeling was assessed to investigate the selectivity of DUB inhibition. Lysates were preincubated with diphenyl carbonates (75 μM), then treated with HA-Ub-VS (FIG. 31A). […] These C17 and C22-sensitive DUBs are most likely USP9x, USP19, USP7/8 and UCHL5, based on molecular weight (FIGS. 31B and 38). The identity of USP7 was confirmed by immunoblotting (FIG. 38F). […] Similar behavior was observed on Cos-1 cell lysates (FIG. 38B).

The subject of a further experiment is USP7. Put plainly: MDM2 and P53 levels in treated cells, Example 6. In kind it is cell-based. The settings on record: compound numbered as in FIG. 3. On the procedure: P53 is a tumor suppressor that is rapidly degraded in tumor cells due to ubiquitination by MDM2. In turn, MDM2 is degraded by the ubiquitin/proteasome system. USP7 removes ubiquitin from MDM2, stabilizing the protein, and thereby causing degradation of P53. […] This behavior is observed when cells are treated with 4 (as defined in FIG. 3). Doxorubicin (Doxo) serves as a positive control.

The subject of another experiment is UCH-L5, UCH-L3, UCH-L1. The experiment is described as follows: HA-Ub-VS activity profiling in cell lysates, UCH-Ls. The format is biochemical, human. As to conditions: HEK293T or Cos-1 lysate, compounds numbered as in FIG. 3. The procedure:
as §4, §5, §6, §7

In the case of `Cl.NCc1ccc(OC(=O)Oc2ccc(Br)cc2)cc1` [compound 4], the BCR/Abl level entry in the experiment on Bcr-Abl kinase is given as “decrease in BCR/Abl”. The “inhibition of caspases or the proteasome” value in experiment [1] is given as “does not inhibit caspases or the proteasome”. In addition, the “GFP fluorescence of G76V ubiquitin-GFP” value in experiment [2] is recorded as “increases”. For the same compound, the “K48- and K63-linked ubiquitin” value in the experiment on MCF7 cells was “elevated K48- and K63-linked ubiquitin”. Also, in the experiment on SMAD4, the SMAD4 monoubiquitination entry was “increase in SMAD4 monoubiquitination”. For the same compound, in experiment [3], the “HA-Ub-VS binding to USP9x and USP7” value is “prevents binding of HA-Ub-VS to USP9x (290 kDa) and USP7 (150 kDa) selectively”. Moreover, in the experiment on USP7, the “MDM2 and P53 levels” value is “degradation of MDM2 and the stabilization of P53”. The “inhibition of UCHL1/3” value in the experiment on UCH-L5, UCH-L3, UCH-L1 is reported as “At higher concentrations UCHL1/3 (37 kDa) are inhibited”.
